In ChEMBL document CHEMBL1201862, “PubChem BioAssay data set” (2004):
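The compound was tested at five concentrations on cells cultured in 96-well plates, with a 48-hour exposure period. At the GI50, growth is halved.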 The source made the active and inactive calls. Rule as the data show it: active = GI50 up to about 1.1 µM and inactive = higher.

Assays:
Assay in all cases: inhibition of tumour cell growth, NCI panel, 48 h
786-0 = test system: 786-0
A549 = test system: A549
DLD-1 = test system: DLD-1
DU-145 = test system: DU-145
HCT-15 = test system: HCT-15
HT-29 = test system: HT-29
M14 = test system: M14
MDA-MB-435 = test system: MDA-MB-435
NCI/ADR-RES = test system: NCI/ADR-RES
OVCAR-3 = test system: OVCAR-3
SF-295 = test system: SF-295
SF-539 = test system: SF-539
SK-MEL-28 = test system: SK-MEL-28
SK-MEL-5 = test system: SK-MEL-5
SK-OV-3 = test system: SK-OV-3
SN12C = test system: SN12C
SNB-75 = test system: SNB-75
UACC-257 = test system: UACC-257
UACC-62 = test system: UACC-62
UO-31 = test system: UO-31

| Structure (SMILES) | GI50 (786-0) | GI50 (A549) | GI50 (DLD-1) | GI50 (DU-145) | GI50 (HCT-15) [µM] | GI50 (HT-29) | GI50 (M14) | GI50 (MDA-MB-435) | GI50 (NCI/ADR-RES) | GI50 (OVCAR-3) | GI50 (SF-295) | GI50 (SF-539) | GI50 (SK-MEL-28) | GI50 (SK-MEL-5) | GI50 (SK-OV-3) | GI50 (SN12C) | GI50 (SNB-75) | GI50 (UACC-257) | GI50 (UACC-62) | GI50 (UO-31) |
| --- | --- | --- | --- | --- | --- | --- | --- | --- | --- | --- | --- | --- | --- | --- | --- | --- | --- | --- | --- | --- |
| CCN(CC)Cc1c(/C=C\c2cc(OC)c(OC)c(OC)c2)ccc(OC)c1O | 3.83 µM (inactive) | 4.25 µM (inactive) | 4.09 µM (inactive) | 3.72 µM (inactive) | 2.71 | 2.76 µM (inactive) | 2.79 µM (inactive) | 0.264 µM (active) | 2.16 µM (inactive) | 2.08 µM (inactive) | 2.03 µM (inactive) | 2.29 µM (inactive) | 15 µM (inactive) | 2.68 µM (inactive) | 2.12 µM (inactive) | 5.3 µM (inactive) | 1.84 µM (inactive) | 16.8 µM (inactive) | 2.43 µM (inactive) | 6.14 µM (inactive) |
| CN[C@@H]1C[C@H]2O[C@@](C)([C@@H]1OC)n1c3ccccc3c3c4c(c5c6ccccc6n2c5c31)C(=O)N[C@@H]4O | 0.0266 µM (active) | 0.0278 µM (active) | 0.149 µM (active) | 0.0254 µM (active) | 0.209 | 0.125 µM (active) | 0.0255 µM (active) | 0.0845 µM (active) | 0.0395 µM (active) | 0.043 µM (active) | 0.0241 µM (active) | < 0.0151 µM (active) | 0.0551 µM (active) | – | 0.0267 µM (active) | 0.0208 µM (active) | < 0.0121 µM (active) | 0.0603 µM (active) | 0.0282 µM (active) | < 0.0151 µM (active) |
| CCCCC(=O)OC[n+]1ccc2c(C)c3[nH]c4ccc(OC)cc4c3c(C)c2c1 | 0.118 µM (active) | 0.308 µM (active) | 0.32 µM (active) | 0.76 µM (active) | 0.166 | 0.243 µM (active) | 1.04 µM (active) | 0.461 µM (active) | 0.234 µM (active) | 0.76 µM (active) | 0.356 µM (active) | 0.367 µM (active) | 1.32 µM (inactive) | 1.22 µM (inactive) | 0.656 µM (active) | 0.146 µM (active) | 1.07 µM (active) | 2.13 µM (inactive) | 0.979 µM (active) | 1.04 µM (active) |
| Cc1cc(Cl)ccc1C1OC(=O)c2c1ccc1ccccc21 (stereo unspecified) | 97.5 µM (inactive) | > 100 µM (inactive) | > 100 µM (inactive) | – | > 100 | > 100 µM (inactive) | > 100 µM (inactive) | – | – | > 100 µM (inactive) | > 100 µM (inactive) | > 100 µM (inactive) | > 100 µM (inactive) | 58.2 µM (inactive) | > 100 µM (inactive) | > 100 µM (inactive) | 29.9 µM (inactive) | > 100 µM (inactive) | > 100 µM (inactive) | > 100 µM (inactive) |
| Cc1cccc(-c2nc3c(C(=O)NCCN(C)C)cccc3[nH]2)c1 | 1.59 µM (inactive) | 1.1 µM (active) | 0.407 µM (active) | – | 0.414 | 0.52 µM (active) | 1.63 µM (inactive) | – | – | 1.89 µM (inactive) | 1.1 µM (active) | 0.724 µM (active) | 2.04 µM (inactive) | 1.65 µM (inactive) | 1.49 µM (inactive) | 0.65 µM (active) | 2.2 µM (inactive) | 1.67 µM (inactive) | 1.8 µM (inactive) | 2.06 µM (inactive) |
| Nc1nc(S)nc(C(=O)Nc2nccs2)c1-c1ccccc1 | > 100 µM (inactive) | > 100 µM (inactive) | > 100 µM (inactive) | – | > 100 | > 100 µM (inactive) | > 100 µM (inactive) | – | – | > 100 µM (inactive) | > 100 µM (inactive) | > 100 µM (inactive) | > 100 µM (inactive) | > 100 µM (inactive) | > 100 µM (inactive) | > 100 µM (inactive) | > 100 µM (inactive) | > 100 µM (inactive) | > 100 µM (inactive) | > 100 µM (inactive) |
| C=CC(=O)c1ccc2c(c1)OCCOCCOCCOCCOCCO2 | 16.1 µM (inactive) | > 100 µM (inactive) | 16.4 µM (inactive) | > 100 µM (inactive) | 21.6 | 28.9 µM (inactive) | 20.3 µM (inactive) | 19.5 µM (inactive) | 25.3 µM (inactive) | 19.7 µM (inactive) | > 100 µM (inactive) | 17.7 µM (inactive) | 18.7 µM (inactive) | 58.7 µM (inactive) | > 100 µM (inactive) | 23.8 µM (inactive) | > 49.3 µM (inactive) | 19.1 µM (inactive) | 30.3 µM (inactive) | 26.2 µM (inactive) |
| C/C(=C\CC[C@]1(C)OC(C)(C)OC1CC/C(C)=C/CO[Si](c1ccccc1)(c1ccccc1)C(C)(C)C)CC/C=C/CO[Si](C)(C)C(C)(C)C (stereo partly specified) | > 100 µM (inactive) | > 100 µM (inactive) | > 100 µM (inactive) | – | > 100 | > 100 µM (inactive) | > 100 µM (inactive) | – | – | 74.5 µM (inactive) | > 100 µM (inactive) | > 100 µM (inactive) | > 100 µM (inactive) | > 100 µM (inactive) | > 100 µM (inactive) | > 100 µM (inactive) | > 100 µM (inactive) | > 100 µM (inactive) | > 100 µM (inactive) | > 100 µM (inactive) |
| Cc1cc(Cl)ccc1NC(=O)C(=O)Cc1nc2ccccc2o1 | > 100 µM (inactive) | > 100 µM (inactive) | > 100 µM (inactive) | – | > 100 | > 100 µM (inactive) | > 100 µM (inactive) | – | – | > 100 µM (inactive) | > 100 µM (inactive) | > 100 µM (inactive) | > 100 µM (inactive) | > 100 µM (inactive) | > 100 µM (inactive) | > 100 µM (inactive) | > 100 µM (inactive) | > 100 µM (inactive) | > 100 µM (inactive) | > 100 µM (inactive) |
| COc1cc2c(oc(=O)c3c4oc([Si](C)(C)C)cc4cc(OC)c23)c2cccc(OCc3ccccc3)c12 | 19.1 µM (inactive) | 44 µM (inactive) | 55 µM (inactive) | – | > 70.5 | 48.9 µM (inactive) | 26.3 µM (inactive) | – | – | 34.8 µM (inactive) | 19 µM (inactive) | 20.7 µM (inactive) | 38.3 µM (inactive) | 38 µM (inactive) | 38.3 µM (inactive) | > 100 µM (inactive) | 19.7 µM (inactive) | 47.6 µM (inactive) | 17.4 µM (inactive) | > 63.7 µM (inactive) |
| c1cnc2c3[nH]cc4[nH]c5ccccc5c4c-3nc2c1 | 44.4 µM (inactive) | > 100 µM (inactive) | 37.8 µM (inactive) | – | 67.5 | 29.8 µM (inactive) | > 100 µM (inactive) | – | – | 53 µM (inactive) | 47.9 µM (inactive) | 93.3 µM (inactive) | 50.5 µM (inactive) | > 100 µM (inactive) | > 100 µM (inactive) | > 100 µM (inactive) | 51.9 µM (inactive) | > 100 µM (inactive) | > 100 µM (inactive) | 42.4 µM (inactive) |
| O=C1c2ccccc2C(=O)N1C/C=N/NS(=O)(=O)c1ccc(Br)cc1 | > 100 µM (inactive) | > 100 µM (inactive) | > 100 µM (inactive) | – | > 100 | > 100 µM (inactive) | > 100 µM (inactive) | – | – | > 100 µM (inactive) | > 100 µM (inactive) | > 100 µM (inactive) | 80 µM (inactive) | > 100 µM (inactive) | > 100 µM (inactive) | > 100 µM (inactive) | > 100 µM (inactive) | > 100 µM (inactive) | > 100 µM (inactive) | > 100 µM (inactive) |
| COC(=O)CC(=O)OC1C[C@@H]2CCC3C(C)(C)CCC[C@]3(C)C23CC[C@@]1(C)C3 (stereo partly specified) | 16.3 µM (inactive) | 24.5 µM (inactive) | 18.8 µM (inactive) | – | 19.9 | 19.2 µM (inactive) | 18 µM (inactive) | – | – | 16.9 µM (inactive) | 19.2 µM (inactive) | 19.6 µM (inactive) | 19.8 µM (inactive) | 17.6 µM (inactive) | 24.5 µM (inactive) | 17.5 µM (inactive) | 27.9 µM (inactive) | 19.1 µM (inactive) | 16.3 µM (inactive) | 19.4 µM (inactive) |
| c1ccc(P(=C2c3ccccc3-c3ccccc32)(c2ccccc2)c2ccccc2)cc1 | 4.68 µM (inactive) | 7 µM (inactive) | 4.32 µM (inactive) | – | 5.02 | 2.99 µM (inactive) | 8.34 µM (inactive) | – | – | 2.53 µM (inactive) | 2.94 µM (inactive) | 11.5 µM (inactive) | 6.5 µM (inactive) | 2.17 µM (inactive) | 20.7 µM (inactive) | 3.15 µM (inactive) | 28.1 µM (inactive) | 3.94 µM (inactive) | 3.46 µM (inactive) | 8.87 µM (inactive) |
| C=CCN(C)CN(C)c1nc(N(C)C)nc(N(C)C)n1 | 43.9 µM (inactive) | > 100 µM (inactive) | 49.4 µM (inactive) | – | 34.3 | > 100 µM (inactive) | 50.7 µM (inactive) | – | – | 64.6 µM (inactive) | > 100 µM (inactive) | > 100 µM (inactive) | > 100 µM (inactive) | > 100 µM (inactive) | > 100 µM (inactive) | > 100 µM (inactive) | 44.1 µM (inactive) | > 100 µM (inactive) | > 100 µM (inactive) | > 100 µM (inactive) |
